{"source": "ChEMBL document CHEMBL5236581", "about": "“A Versatile and Sustainable Multicomponent Platform for the Synthesis of Protein Degraders: Proof-of-Concept Application to BRD4-Degrading PROTACs” (J Med Chem, 2022)", "key": {"[1]": {"experiment": "Thermodynamic solubility of compound in phosphate buffer at pH 7.4 incubated for 2 hrs with shaking by LC-UV analysis", "assay_type": "physicochemical", "conditions": "read-out: Therm_solubility"}, "[2]": {"experiment": "Thermodynamic solubility of compound in HCL at pH 2 incubated for 2 hrs with shaking by LC-UV analysis", "assay_type": "physicochemical", "conditions": "read-out: Therm_solubility"}, "[3]": {"molecular_target": "von Hippel-Lindau disease tumor suppressor/Bromodomain-containing protein 4 (Homo sapiens) (UniProt O60885+P40337)", "sequence (P40337 whole entry, looked up, other chains not shown)": "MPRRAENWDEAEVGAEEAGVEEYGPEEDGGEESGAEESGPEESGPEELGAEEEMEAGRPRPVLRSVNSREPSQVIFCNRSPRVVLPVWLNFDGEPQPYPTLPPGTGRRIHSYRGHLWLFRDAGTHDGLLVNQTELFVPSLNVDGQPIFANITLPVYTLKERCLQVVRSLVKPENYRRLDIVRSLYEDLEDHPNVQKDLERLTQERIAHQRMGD", "experiment": "Protac activity at BRD4/VHL E3 ligase in human MDA-MB-231 cells assessed as decrease in BRD4 expression at 1 uM incubated for 4 to 24 hrs by Western blot analysis", "assay_type": "cell-based", "conditions": "time lower 4.0 hrs, time upper […]"}}, "note": "Activity calls are given as the source filed them. The calls are words filed in the database; no cut-off is given here. Where a SMILES comes first, the peptide text is derived from it. [ ]: non-standard residue; d: D form. The star is where a group is joined. JQ1acid = Cc1sc2c(c1C)C(c1ccc(Cl)cc1)=N[C@@H](CC(=O)*)c1nnc(C)n1-2; NHBn(4-(4-Me-thiazol-5-yl)) = Cc1ncsc1-c1ccc(CN*)cc1; Hyp = O=C(O)[C@@H]1C[C@@H](O)CN1; Tle = CC(C)(C)[C@H](N)C(=O)O; Sar = CNCC(=O)O", "data": [{"compound": "Cc1sc2c(c1C)C(c1ccc(Cl)cc1)=N[C@@H](CC(=O)NCCCCNC(=O)COc1cccc3c1C(=O)N(C1CCC(=O)NC1=O)C3=O)c1nnc(C)n1-2", "note": "(stereo not given in full)", "values": [{"measurement": "solubility thermodynamic at 2 h", "setting": "[1]", "value": 60, "unit": "µM"}, {"measurement": "solubility thermodynamic at 2 h", "setting": "[2]", "value": 171, "unit": "µM"}]}, {"compound": "Cc1ncsc1-c1ccc(CNC(=O)[C@@H]2C[C@@H](O)CN2C(=O)[C@@H](NC(=O)CNC(=O)CN2CCN(C(=O)C[C@@H]3N=C(c4ccc(Cl)cc4)c4c(sc(C)c4C)-n4c(C)nnc43)CC2)C(C)(C)C)cc1", "values": [{"measurement": "Activity", "setting": "[3]", "value": "inactive"}]}, {"compound": "Cc1ncsc1-c1ccc(CNC(=O)[C@@H]2C[C@@H](O)CN2C(=O)[C@@H](NC(=O)CNC(=O)CN(C)C(=O)C[C@@H]2N=C(c3ccc(Cl)cc3)c3c(sc(C)c3C)-n3c(C)nnc32)C(C)(C)C)cc1", "note": "(JQ1acid-[Sar]G[Tle][Hyp]-{NHBn(4-(4-Me-thiazol-5-yl))})", "values": [{"measurement": "Activity", "setting": "[3]", "value": "inactive"}]}, {"compound": "Cc1ncsc1-c1ccc(CNC(=O)[C@@H]2C[C@@H](O)CN2C(=O)[C@@H](NC(=O)CCCNC(=O)CN2CCN(C(=O)C[C@@H]3N=C(c4ccc(Cl)cc4)c4c(sc(C)c4C)-n4c(C)nnc43)CC2)C(C)(C)C)cc1", "values": [{"measurement": "Activity", "setting": "[3]", "value": "inactive"}]}]}
